These results are taken from patent US5128242A, “Hypothalamic polypeptides with adenylate cyclase stimulating activity” (The Administrators of the Tulane Educational Fund, priority 1989, dated 1992).

Experiment [1] relates to rat pituitary cell cultures. The experiment can be described thus: Intracellular cAMP accumulation in cultured pituitary cells. The experiment is classed as cell-based. The conditions noted are these: temporal changes, concentration not given. The text has this: FIG. 6a. Intracellular cAMP accumulation in cultured pituitary cells.
We also determined temporal changes in intracellular cAMP levels in rat pituitary cell cultures.

The subject of the next experiment is adenylate cyclase. Conditions: rat pituitary cell cultures. The protocol: Primary monolayer rat anterior pituitary cell culture was prepared as described previously (Culler et al., 1984). Anterior pituitaries from CD strain female rats of approximately 200 g bw (Charles River Breeding Labs, Wilmington, Mass.) at a random stage of estrous cycle were enzymatically dispersed with collagenase Type II and DNAse II. Dispersed cells were collected by centrifugation and washed three times with HEPES buffer and finally suspended in Dulbecco,s modified Eagle's medium (DMEM) containing 10% horse serum, 2.5% fetal calf serum and 1% antibiotic antimycotic solution (Gibco/Life Technologies, Grand Isle, NY) The cells are plated in 24-multiwell tissue culture plates (Falcon, Oxnard, Calif.) at a density of 1.5×10^5 cells/ml/well, and then incubated at 37° C. in a water-saturated atmosphere of 95% air 5% CO2 for 4 days. Prior to acute stimulation, cultured cells were incubated for 3 hr in serum-free DMEM with two changes of the medium. The cells were then incubated for 3 hr in 0.5 ml of HEPES-buffered DMEM containing test materials. Ascorbic acid (2.5×10^-4 M) and 0.25% BSA were routinely added to the medium during assay incubation in order to prevent possible oxidation and adsorption of test samples. […]
Cyclic AMP in the culture media was determined by RIA as described by Harper and Brooker (J. Cyclic Nucleo. Res. 1:207, 1975). […]

A further experiment deals with arterial blood pressure. The experiment in a line: Determination of depressor activity (arterial blood pressure) in urethane-anesthetized rats. The format is in vivo, rat. Conditions: for vasodepressor activity: urethane-anaesthetized rats, dose range 0.33 nmole to 1.0 nmole. As for the experimental part: Arterial blood pressure was measured in urethane (150 mg/100 g ip) anesthetized adult male rats. Polyethylene tubing (PE50) which was connected with a pressure transducer P-1000 B (Narco Bio-Systems) was inserted into the femoral artery. Blood pressure was recorded using Narcotrace 40. Another polyethylene tube (PE50) was inserted into a femoral vein for injection of test materials dissolved in 0.5 ml 0.9% saline.

In experiment [2] the test system is neurons. The experiment in a line: Intracellular cAMP accumulation in cultured neurons. The conditions noted are these: for intracellular cAMP response in neurons: 10^-9 M added to culture medium. The experiment is classed as cell-based, rat. The protocol:
FIG. 6c. Intracellular cAMP accumulation in cultured neurons.
(§1) For studies on neurons, rat neuronal cell cultures were prepared by the method described by Raizada et al. (Raizada et al. Am. J. Physiol. 247:C364, 1984). Astrocyte cultures were prepared using the single-step transfer method as described by Clarke et al. (Clark et al., J. Biol. Chem. 259:11672, 1984). […] Intracellular cAMP levels remained elevated for at least 60 minutes in astrocytes, but began to decrease after 10 min in neurons.
On the technique in general: Changes in cAMP serve as a functional read-out for many G protein-coupled receptors.

For experiment [3], the system named is superfused pituitary cells. The experiment in a line: Superfusion method using rat pituitary cell column: release of pituitary hormones. The experiment is classed as cell-based. As for the experimental part:
FIGS. 5A-5D. The effect of synthetic PACAP38 on the release of pituitary hormones from superfused pituitary cells. A pituitary cell superfusion method to determine the hypophysiotropic activity of samples was conducted as reported by Vigh and Schally. The peptide was applied as a 3 min pulse. The numbers at top indicate; 1,7: 100 mM KCl, 2: 10^-10 M PACAP38, 3: 10^-9 M PACAP38, 4: 10^-8 M PACAP38, 5: 10^-7 M PACAP38, 6: 10^-6 M PACAP38. 0.9 ml fractions were collected every 3 min.
A pituitary cell superfusion method to determine the hypophysiotropic activity of samples was conducted as reported by Vigh and Schally (1984). Pituitaries obtained from 3 adult female rats were cut into small pieces and incubated in a Dubnoff incubator for 45 min at 37° C. in 10 ml of oxygenated Medium 199 (Gibco/Life Technologies) containing 0.5% collagenase (Sigma Type I), 0.25% BSA and […] gentamicin sulphate (Sigma). After this incubation, there were no apparent changes in the pituitary tissue, but the fragments could be easily dispersed into single cells by repeated suction and expulsion from a Pasteur pipet. After 30 to 60 pipet operations, the tissue fell apart. The cell suspension was centrifuged at room temperature for 10 min at 100×g. The cell pellet was then resuspended in 1.0 ml medium. A small aliquot was diluted to count the cells, and the remainder of the suspension was divided into 2 equal volumes. Each volume (containing about 5×10^6 cells and usually between 3.5 and 7.0×10^6) was mixed with 0.5 ml Sephadex G-15 which had been equilibrated with previously oxygenated medium. The mixture of pituitary cells and Sephadex was transferred into 2 chambers of the superfusion apparatus and perfused with the medium. The medium was always freshly prepared in a way similar to that for enzymatic dispersion, omitting the collagenase, then passed through a Millipore filter, and continuously gassed with a mixture of O2 (95%) and CO2 (5%) during the experiment. The flow rate of the medium through the superfusion system was controlled by a multichannel pump (Gilson Minipulse Type HP-8) which was placed behind the superfusion chamber; the tuning of the lower plunger was connected to the pump, and from there to a two-channel fraction collector. Thus, the system was operated with negative pressure in order to get fewer fluctuations in the flow rate. Samples were applied as a 3 min pulse followed by the medium superfusion. Superfusate was collected as 3 min fractions, 0.9 ml per fraction.

Another experiment deals with astrocytes. The experiment can be described thus: Intracellular cAMP accumulation in cultured astrocytes. The experiment is classed as cell-based, rat. The conditions noted are these: for intracellular cAMP response in astrocytes: 10^-9 M added to culture medium. The protocol:
FIG. 6b. Intracellular cAMP accumulation in cultured astrocytes.
as §1

The test system of a further experiment is rat pituitary fragments. Conditions: in vitro; Arimura et al. 1984; cited from earlier work.
The test system of experiment [4] is neurons. Conditions: De Brenneman et al. 1987, 1988; cited from earlier work.
[5] abbreviates: superfused rat pituitary cells, hormone release.

Entries after “also recorded” stand apart in the source; their conditions may differ. Ends that are not written are not given here.

Take `CC[C@H](C)[C@H](NC(=O)CNC(=O)[C@H](CC(=O)O)NC(=O)[C@H](CO)NC(=O)[C@@H](N)Cc1c[nH]cn1)C(=O)N[C@@H](Cc1ccccc1)C(=O)N[C@H](C(=O)N[C@@H](CC(=O)O)C(=O)N[C@@H](CO)C(=O)N[C@@H](Cc1ccc(O)cc1)C(=O)N[C@@H](CO)C(=O)N[C@@H](CCCNC(=N)N)C(=O)N[C@@H](Cc1ccc(O)cc1)C(=O)N[C@@H](CCCNC(=N)N)C(=O)N[C@@H](CCCCN)C(=O)N[C@@H](CCC(N)=O)C(=O)N[C@@H](CCSC)C(=O)N[C@@H](C)C(=O)N[C@H](C(=O)N[C@@H](CCCCN)C(=O)N[C@@H](CCCCN)C(=O)N[C@@H](Cc1ccc(O)cc1)C(=O)N[C@@H](CC(C)C)C(=O)N[C@@H](C)C(=O)N[C@@H](C)C(=O)N[C@H](C(=O)N[C@@H](CC(C)C)C(N)=O)C(C)C)C(C)C)[C@@H](C)O` [PACAP27NH2]: the “intracellular cAMP accumulation (extent and pattern)” value (“intracellular cAMP accumulation” for short) in experiment [1] was “comparable extent and pattern of cAMP accumulation”. Moreover, the “ACSA activity compared with native PACAP38” value in the experiment on adenylate cyclase (cAMP in medium after 3 hr incubation) is given as “similar, if not greater”.

In the case of `CC[C@H](C)[C@H](NC(=O)CNC(=O)[C@H](CC(=O)O)NC(=O)[C@H](CO)NC(=O)[C@@H](N)Cc1c[nH]cn1)C(=O)N[C@@H](Cc1ccccc1)C(=O)N[C@H](C(=O)N[C@@H](CC(=O)O)C(=O)N[C@@H](CO)C(=O)N[C@@H](Cc1ccc(O)cc1)C(=O)N[C@@H](CO)C(=O)N[C@@H](CCCNC(=N)N)C(=O)N[C@@H](Cc1ccc(O)cc1)C(=O)N[C@@H](CCCNC(=N)N)C(=O)N[C@@H](CCCCN)C(=O)N[C@@H](CCC(N)=O)C(=O)N[C@@H](CCSC)C(=O)N[C@@H](C)C(=O)N[C@H](C(=O)N[C@@H](CCCCN)C(=O)N[C@@H](CCCCN)C(=O)N[C@@H](Cc1ccc(O)cc1)C(=O)N[C@@H](CC(C)C)C(=O)N[C@@H](C)C(=O)N[C@@H](C)C(=O)N[C@H](C(=O)N[C@@H](CC(C)C)C(=O)NCC(=O)N[C@@H](CCCCN)C(=O)N[C@@H](CCCNC(=N)N)C(=O)N[C@@H](Cc1ccc(O)cc1)C(=O)N[C@@H](CCCCN)C(=O)N[C@@H](CCC(N)=O)C(=O)N[C@@H](CCCNC(=N)N)C(=O)N[C@H](C(=O)N[C@@H](CCCCN)C(=O)N[C@@H](CC(N)=O)C(=O)N[C@@H](CCCCN)C(N)=O)C(C)C)C(C)C)C(C)C)[C@@H](C)O` [PACAP38], in experiment [1], the “intracellular cAMP accumulation” value was “comparable extent and pattern of cAMP accumulation”. Also, the depressor activity result in the experiment with arterial blood pressure (anesthetized rats, injection into femoral vein) was “significant, but somewhat weaker”. Also, the vasodepressor activity entry in the experiment with arterial blood pressure is listed as “comparable vasodepressor activity”. In addition, in the experiment with neurons [2] (10^-9 M), the “time after which intracellular cAMP began to decrease, neurons” value stood at 10 min and the “time of first cAMP increase after addition, neurons” value is on record as “as early as one minute”. The “intracellular cAMP response in neurons” value in the experiment with neurons [2] is given as “increased intracellular cAMP”. In experiment [3] (3 min pulse, 10^-10 to 10^-6 M), the FSH release entry is “not altered; also recorded: not apparent”, the LH release entry is recorded as “LH response was linear” and the TSH release result was “not altered; also recorded: not apparent”. Besides, in experiment [3] (setting [5]), the “dose of maximum effect (bell-shaped dose response curve)” value is 10^-8 M and the minimum effective dose is 10^-10 M. Also, in the experiment on adenylate cyclase (fold of VIP), the “adenylate cyclase stimulating activity relative to VIP” value is listed as “at least 100 times”. In the experiment on astrocytes (10^-9 M), the “time intracellular cAMP levels remained elevated, astrocytes” value was “at least 60 minutes” and the “time of first cAMP increase after addition, astrocytes” value is “as early as one minute”. In the experiment on astrocytes, the “intracellular cAMP response in astrocytes” value is “extraordinarily large”.

Consider “CRH: known hypothalamic releasing hormone (corticotropic releasing hormone) used for comparison (SEEPPISLDLTFHLLREVLEMARAEQLAQQAHSNRKLMEII; ends and bridges not checked; UniProt P06850 154-194, looked up)”, for which the “intracellular cAMP accumulation” value in experiment [1] was “comparable extent and pattern of cAMP accumulation”.

“HP: ovine hypothalamic peptide, partial N-terminal sequence His-Ser-Asp-Gly-Ile-Phe-Thr-Asp-Ser-Tyr-Lys-Arg-Tyr-Asn-Lys-Glu-Met-Ala-Lys- (HSDGIFTDSYKRYNKEMAK; printed: His-Ser-Asp-Gly-Ile-Phe-Thr-Asp-Ser-Tyr-Lys-Arg-Tyr-Asn-Lys-Glu-Met-Ala-Lys-)”: the “GH release from rat pituitary fragments” value in the experiment with rat pituitary fragments is “stimulated GH release”.

For the compound “growth hormone releasing hormone (YADAIFTNSYRKVLGQLSARKLLQDIMSRQQGESNQERGARARL; ends and bridges not checked; UniProt P01286 32-75, looked up) [GRH]”, the “intracellular cAMP accumulation” value in experiment [1] is reported as “greatest accumulation of intracellular cAMP”.

In the case of “vasoactive intestinal peptide [VIP, reference compound]”, in experiment [1], the “intracellular cAMP accumulation” value was “little effect”. For the same compound, the “protection of neurons from gp120-induced cell death” value in the experiment on neurons [4] is “capable of protecting neurons from cell death”. Further, the vasodepressor activity entry in the experiment on arterial blood pressure is listed as “comparable vasodepressor activity”. Moreover, the “intracellular cAMP response in neurons” value in the experiment with neurons [2] was “did not induce an appreciable stimulation of cAMP”. Besides, in the experiment with astrocytes, the “intracellular cAMP response in astrocytes” value is recorded as “did not induce an appreciable stimulation of cAMP”.
